# Assay results taken from PubChem BioAssay (NCI).
#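 Exposure lasted 48 hours, with cells grown in 96-well plates and compounds tested at five concentrations. At the TGI there is no net growth.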
# Key:
# Experiment in all cases: NCI tumour cell line growth inhibition, 48 h
# MCF7 breast = test system: MCF7 breast
# HT29 colon = test system: HT29 colon
# SK-MEL-28 melanoma = test system: SK-MEL-28 melanoma
# EKVX NSCLC = test system: EKVX NSCLC
# SK-OV-3 ovarian = test system: SK-OV-3 ovarian
# NCI-H23 lung = test system: NCI-H23 lung
# SK-MEL-5 melanoma = test system: SK-MEL-5 melanoma
# SNB-78 CNS = test system: SNB-78 CNS
# OVCAR-5 ovarian = test system: OVCAR-5 ovarian
# A498 renal = test system: A498 renal
# M19-MEL melanoma = test system: M19-MEL melanoma
# IGROV1 ovarian = test system: IGROV1 ovarian
# DLD-1 colon = test system: DLD-1 colon
# OVCAR-4 ovarian = test system: OVCAR-4 ovarian
# COLO 205 colon = test system: COLO 205 colon
# NCI-H460 lung = test system: NCI-H460 lung
# RPMI-8226 leukemia = test system: RPMI-8226 leukemia
# SN12C renal = test system: SN12C renal
# UO-31 renal = test system: UO-31 renal
# NCI-H226 lung = test system: NCI-H226 lung
# KM12 colon = test system: KM12 colon
# UACC-62 melanoma = test system: UACC-62 melanoma
# MALME-3M melanoma = test system: MALME-3M melanoma
# DMS 114 small cell lung = test system: DMS 114 small cell lung
# HOP-62 NSCLC = test system: HOP-62 NSCLC
# MOLT-4 leukemia = test system: MOLT-4 leukemia
# HCT-116 colon = test system: HCT-116 colon
# DMS 273 small cell lung = test system: DMS 273 small cell lung
# P388 leukemia = test system: P388 leukemia
# LOX IMVI melanoma = test system: LOX IMVI melanoma
# HOP-92 NSCLC = test system: HOP-92 NSCLC
# HCC-2998 colon = test system: HCC-2998 colon
# SNB-75 CNS = test system: SNB-75 CNS
# SW-620 colon = test system: SW-620 colon
# SF-539 CNS = test system: SF-539 CNS
# SN12K1 renal = test system: SN12K1 renal
# XF 498 CNS = test system: XF 498 CNS
# A549 NSCLC = test system: A549 NSCLC
# SF-268 CNS = test system: SF-268 CNS
# UACC-257 melanoma = test system: UACC-257 melanoma
# SK-MEL-2 melanoma = test system: SK-MEL-2 melanoma
# CCRF-CEM leukemia = test system: CCRF-CEM leukemia
# K-562 leukemia = test system: K-562 leukemia
# NCI-H522 lung = test system: NCI-H522 lung
# U251 CNS = test system: U251 CNS
# HCT-15 colon = test system: HCT-15 colon
# P388/ADR leukemia = test system: P388/ADR leukemia
# KM20L2 colon = test system: KM20L2 colon
# RXF 393 renal = test system: RXF 393 renal
# OVCAR-3 ovarian = test system: OVCAR-3 ovarian
# SNB-19 CNS = test system: SNB-19 CNS
# CAKI-1 renal = test system: CAKI-1 renal
# SF-295 CNS = test system: SF-295 CNS
# HL-60(TB) leukemia = test system: HL-60(TB) leukemia
# OVCAR-8 ovarian = test system: OVCAR-8 ovarian
# NCI/ADR-RES ovarian = test system: NCI/ADR-RES ovarian
# 786-0 renal = test system: 786-0 renal
# SR leukemia = test system: SR leukemia
# HOP-18 NSCLC = test system: HOP-18 NSCLC
# ACHN renal = test system: ACHN renal
# M14 melanoma = test system: M14 melanoma
# TK-10 renal = test system: TK-10 renal
# RXF-631 renal = test system: RXF-631 renal
# LXFL 529 NSCLC = test system: LXFL 529 NSCLC
compound,measurement,setting,value
Cc1c2cc[nH]c(C(F)(F)F)c2cc2c1nc1ccccc12,TGI,MCF7 breast,> 125 µM
same,TGI,HT29 colon,> 125 µM
same,TGI,SK-MEL-28 melanoma,> 125 µM
same,TGI,EKVX NSCLC,> 125 µM
same,TGI,SK-OV-3 ovarian,> 125 µM
same,TGI,NCI-H23 lung,> 125 µM
same,TGI,SK-MEL-5 melanoma,> 125 µM
same,TGI,SNB-78 CNS,> 125 µM
same,TGI,OVCAR-5 ovarian,> 125 µM
same,TGI,A498 renal,> 113 µM
same,TGI,M19-MEL melanoma,> 125 µM
same,TGI,IGROV1 ovarian,> 125 µM
same,TGI,DLD-1 colon,> 125 µM
same,TGI,OVCAR-4 ovarian,> 125 µM
same,TGI,COLO 205 colon,> 125 µM
same,TGI,NCI-H460 lung,> 125 µM
same,TGI,RPMI-8226 leukemia,> 78.9 µM
same,TGI,SN12C renal,> 125 µM
same,TGI,UO-31 renal,> 125 µM
same,TGI,NCI-H226 lung,> 125 µM
same,TGI,KM12 colon,> 125 µM
same,TGI,UACC-62 melanoma,> 125 µM
same,TGI,MALME-3M melanoma,> 125 µM
same,TGI,DMS 114 small cell lung,> 125 µM
same,TGI,HOP-62 NSCLC,> 125 µM
same,TGI,MOLT-4 leukemia,> 78.9 µM
same,TGI,HCT-116 colon,> 125 µM
same,TGI,DMS 273 small cell lung,> 125 µM
same,TGI,P388 leukemia,> 125 µM
same,TGI,LOX IMVI melanoma,> 125 µM
same,TGI,HOP-92 NSCLC,> 125 µM
same,TGI,HCC-2998 colon,> 125 µM
same,TGI,SNB-75 CNS,108 µM
same,TGI,SW-620 colon,> 125 µM
same,TGI,SF-539 CNS,> 125 µM
same,TGI,SN12K1 renal,> 125 µM
same,TGI,XF 498 CNS,> 19.8 µM
same,TGI,A549 NSCLC,> 125 µM
same,TGI,SF-268 CNS,> 125 µM
same,TGI,UACC-257 melanoma,> 125 µM
same,TGI,SK-MEL-2 melanoma,> 125 µM
same,TGI,CCRF-CEM leukemia,> 125 µM
same,TGI,K-562 leukemia,> 125 µM
same,TGI,NCI-H522 lung,> 125 µM
same,TGI,U251 CNS,> 125 µM
same,TGI,HCT-15 colon,> 125 µM
same,TGI,P388/ADR leukemia,> 70.3 µM
same,TGI,KM20L2 colon,> 125 µM
same,TGI,RXF 393 renal,> 125 µM
same,TGI,OVCAR-3 ovarian,> 125 µM
same,TGI,SNB-19 CNS,> 125 µM
same,TGI,CAKI-1 renal,> 125 µM
same,TGI,SF-295 CNS,> 125 µM
same,TGI,HL-60(TB) leukemia,> 125 µM
same,TGI,OVCAR-8 ovarian,> 125 µM
same,TGI,NCI/ADR-RES ovarian,> 125 µM
Nc1nc(CCC(=O)Nc2cccc(C(F)(F)F)c2)cc(-c2cccc3ccccc23)n1,TGI,HT29 colon,> 100 µM
same,TGI,SK-MEL-28 melanoma,> 100 µM
same,TGI,786-0 renal,> 100 µM
same,TGI,EKVX NSCLC,> 100 µM
same,TGI,SK-OV-3 ovarian,> 100 µM
same,TGI,NCI-H23 lung,> 100 µM
same,TGI,SR leukemia,> 100 µM
same,TGI,SK-MEL-5 melanoma,> 100 µM
same,TGI,HOP-18 NSCLC,> 100 µM
same,TGI,SNB-78 CNS,> 100 µM
same,TGI,OVCAR-5 ovarian,> 100 µM
same,TGI,A498 renal,> 100 µM
same,TGI,M19-MEL melanoma,> 100 µM
same,TGI,IGROV1 ovarian,> 100 µM
same,TGI,DLD-1 colon,> 100 µM
same,TGI,ACHN renal,> 100 µM
same,TGI,OVCAR-4 ovarian,> 100 µM
same,TGI,COLO 205 colon,> 100 µM
same,TGI,M14 melanoma,> 100 µM
same,TGI,NCI-H460 lung,> 100 µM
same,TGI,SN12C renal,> 100 µM
same,TGI,UO-31 renal,> 100 µM
same,TGI,NCI-H226 lung,> 100 µM
same,TGI,KM12 colon,> 100 µM
same,TGI,UACC-62 melanoma,> 100 µM
same,TGI,MALME-3M melanoma,> 100 µM
same,TGI,DMS 114 small cell lung,> 100 µM
same,TGI,HOP-62 NSCLC,> 100 µM
same,TGI,MOLT-4 leukemia,> 100 µM
same,TGI,HCT-116 colon,> 100 µM
same,TGI,DMS 273 small cell lung,> 100 µM
same,TGI,LOX IMVI melanoma,> 100 µM
same,TGI,TK-10 renal,> 100 µM
same,TGI,HCC-2998 colon,> 100 µM
same,TGI,SNB-75 CNS,> 100 µM
same,TGI,SW-620 colon,> 100 µM
same,TGI,RXF-631 renal,> 100 µM
same,TGI,SF-539 CNS,> 100 µM
same,TGI,XF 498 CNS,> 100 µM
same,TGI,A549 NSCLC,> 100 µM
same,TGI,SF-268 CNS,> 100 µM
same,TGI,UACC-257 melanoma,> 100 µM
same,TGI,SK-MEL-2 melanoma,> 100 µM
same,TGI,CCRF-CEM leukemia,> 100 µM
same,TGI,K-562 leukemia,> 100 µM
same,TGI,LXFL 529 NSCLC,> 100 µM
same,TGI,NCI-H522 lung,> 100 µM
same,TGI,U251 CNS,> 100 µM
same,TGI,HCT-15 colon,> 100 µM
same,TGI,KM20L2 colon,> 100 µM
same,TGI,RXF 393 renal,> 100 µM
same,TGI,OVCAR-3 ovarian,> 100 µM
same,TGI,SNB-19 CNS,> 100 µM
same,TGI,CAKI-1 renal,> 100 µM
same,TGI,SF-295 CNS,> 100 µM
same,TGI,HL-60(TB) leukemia,> 100 µM
same,TGI,OVCAR-8 ovarian,> 100 µM
